Counter-ions that a name gives are not always drawn.
Assays:
[1] = Solubility in physiologically acceptable solvents (statement, no method described); conditions: in words
[2] = Hygroscopicity (statement, no method described); type: physicochemical; conditions: in words
[3] = In-vitro intrinsic dissolution of 200 mg pellets of API without excipients; type: physicochemical; conditions: for % release of Compound (I) from the respective Salts: Table 8; for % release of Compound (I) from the respective Salts / % release of active from fumarate salt pellet: 200 mg pellet, 0.01N HCl, 37° C., paddle 75 rpm; for % release of active from fumarate salt pellet: Table 7; for dissolution profile compared to other salts: from the data of Table 8
Description: A tableting mixture (200 mg) comprising solely salts of (((1-(6-amino-9H-purin-9-yl)propan-2-yloxy)methyl) (phenoxy) phosphoryloxy) methyl pivalate-prepared according to any one of the examples 1 to 10 (i.e. with no excipients) was prepared and compressed to a pellet using an automatic KBR press operating at a compression pressure of 2 tones for 2 minutes.
Similarly a tableting mixture (200 mg) comprising a solely TAF (i.e. with no excipients) was prepared and compressed to a pellet using an automatic KBR press operating at a compression pressure of 2 tones for 2 minutes.
A tableting mixture (200 mg) comprising solely TDF (i.e. with no excipients) was prepared and compressed to a pellet using an automatic KBR press operating at a compression pressure of 2 tones for 2 minutes.
In-vitro dissolution studies were performed on the 200 mg pellet in a LAB INDIA DISSO 2000.
The pellet was fixed in a PFTE holder, such that only the pellet surface came into contact with the dissolution medium. The PFTE loaded holder was placed in the dissolution vessel containing 900 ml of 0.1M of HCl having […] at 37±0.5° C. Two pellets were measured for each run of the design of the experiments. Stirring was performed with a paddle rotating at 75 rpm. […]
Dissolution Media: 0.01N HCl
Bath temperature: 37.5° C.
Sample Preparation: Pellets were prepared by pressing sample with 2 ton pressure for 2 min
Note: Aliquots were analysed on HPLC.
The concentration of (((1-(6-amino-9H-purin-9-yl)propan-2-yloxy)methyl) (phenoxy) phosphoryloxy) methyl pivalate was quantified by HPLC UV method at a maximum wavelength of 300 nm under the conditions as specified below:
Standard Preparation: 25 mg standard dissolved to 25 ml with dissolution medium. 5 ml of this solution diluted to 25 ml with dissolution medium. Further 5 ml of this solution was diluted to 10 ml with diluent.
Sample Preparation: 200 mg of Sample pellets were prepared and subjected to dissolution. 10 ml of Aliquot was removed from the dissolution basket at predetermined time intervals. 5 ml of these aliquot was diluted to 10 ml with Diluent.
200 mg of input API of fumarate salt of (((1-(6-amino-9H-purin-9-yl)propan-2-yloxy)methyl) (phenoxy) phosphoryloxy) methyl pivalate used for pellet preparation.
The percentage of (((1-(6-amino-9H-purin-9-yl)propan-2-yloxy)methyl) (phenoxy) phosphoryloxy) methyl pivalate (TD), Tenofovir Alafenamide (TAF) and Tenofovir Disoproxil (TDF) released from the respective fumarate salt tablet were plotted against time as shown in FIG. 19. The intrinsic dissolution rate was derived from the slope of this curve.
To measure the intrinsic dissolution of the Salts of (((1-(6-amino-9H-purin-9-yl)propan-2-yloxy)methyl) (phenoxy) phosphoryloxy) methyl pivalate, samples were measured to compare the influence of the different parameter settings. At appropriate time intervals, an automated sample collector removes aliquots from the dissolution medium for analysis. The time interval for sampling can vary, for example, from 5 to 120 minutes, depending on the properties of the drug and dissolution medium used. Suitable dissolution equipment for these operations includes LAB INDIA DISSO 2000. Bath temperature—37.5° C.
200 mg of input API of each fumarate, oxalate, phosphate, citrate, succinate and tartrate Salts of (((1-(6-amino-9H-purin-9-yl)propan-2-yloxy)methyl) (phenoxy) phosphoryloxy) methyl pivalate used for pellet preparation.
The percentage of (((1-(6-amino-9H-purin-9-yl)propan-2-yloxy)methyl) (phenoxy) phosphoryloxy) methyl pivalate released from the respective salts tablet were plotted against time as shown in FIG. 20. The intrinsic dissolution rate was derived from the slope of this curve.

| SMILES | solubility in physiologically acceptable solvents [1] | hygroscopicity [2] | % release of Compound (I) from the respective Salts ([3]; 5 min) | % release of Compound (I) from the respective Salts ([3]; 15 min) | % release of Compound (I) from the respective Salts ([3]; 30 min) | % release of Compound (I) from the respective Salts ([3]; 45 min) | % release of Compound (I) from the respective Salts ([3]; 60 min) | % release of Compound (I) from the respective Salts ([3]; 90 min) | % release of Compound (I) from the respective Salts ([3]; 120 min) | % release of Compound (I) from the respective Salts ([3]; 150 min) | % release of Compound (I) from the respective Salts ([3]; 180 min) | % release of Compound (I) from the respective Salts ([3]; 210 min) | % release of Compound (I) from the respective Salts ([3]; 240 min) | % release of active from fumarate salt pellet ([3]; 5 min) | % release of active from fumarate salt pellet ([3]; 10 min) | % release of active from fumarate salt pellet ([3]; 15 min) | % release of active from fumarate salt pellet ([3]; 30 min) | % release of active from fumarate salt pellet ([3]; 45 min) | % release of active from fumarate salt pellet ([3]; 60 min) | % release of active from fumarate salt pellet ([3]; 90 min) | also measured |
| --- | --- | --- | --- | --- | --- | --- | --- | --- | --- | --- | --- | --- | --- | --- | --- | --- | --- | --- | --- | --- | --- |
| CC(Cn1cnc2c(N)ncnc21)OCP(=O)(OCOC(=O)C(C)(C)C)Oc1ccccc1.O=C(O)CC(O)(CC(=O)O)C(=O)O (stereo not shown) [Citrate, (((1-(6-amino-9H-purin-9-yl)propan-2-yloxy)methyl) (phenoxy)phosphoryloxy) methyl pivalate citric acid salt] | readily soluble | not hygroscopic | 4% | 12% | 23% | 33% | 42% | 63% | 70% | 66% | 67% | 66% | 69% | – | – | – | – | – | – | – | – |
| CC(Cn1cnc2c(N)ncnc21)OCP(=O)(OCOC(=O)C(C)(C)C)Oc1ccccc1.O=C(O)/C=C/C(=O)O (stereo not shown) [Fumarate, (((1-(6-amino-9H-purin-9-yl)propan-2-yloxy)methyl) (phenoxy)phosphoryloxy) methyl pivalate fumaric acid salt] | – | – | 3% | 7% | 12% | 18% | 24% | 35% | 45% | 56% | 66% | 75% | 83% | 7% | 5% | 6% | 12% | 18% | 24% | 35% | % release of active from fumarate salt pellet ([3]; 120 min): 45%; dissolution profile compared with TAF and TDF ([3]; in words, from the data of Table 7): slow dissolution profile than TAF and TDF |
| CC(Cn1cnc2c(N)ncnc21)OCP(=O)(OCOC(=O)C(C)(C)C)Oc1ccccc1.O=C(O)C(=O)O (stereo not shown) [Oxalate, (((1-(6-amino-9H-purin-9-yl)propan-2-yloxy)methyl) (phenoxy)phosphoryloxy) methyl pivalate oxalic acid salt] | readily soluble | not hygroscopic | 2% | 4% | 7% | 10% | 15% | 23% | 31% | 40% | 46% | 53% | 60% | – | – | – | – | – | – | – | dissolution profile compared to other salts ([3]; in words): slowest dissolution profile |
| CC(Cn1cnc2c(N)ncnc21)OCP(=O)(OCOC(=O)C(C)(C)C)Oc1ccccc1.O=P(O)(O)O (stereo not shown) [Phosphate, (((1-(6-amino-9H-purin-9-yl)propan-2-yloxy)methyl) (phenoxy)phosphoryloxy) methyl pivalate phosphoric acid salt] | readily soluble | not hygroscopic | 19% | 59% | 103% | 104% | 105% | 105% | 106% | 105% | 104% | 104% | 105% | – | – | – | – | – | – | – | dissolution profile compared to other salts ([3]; in words): fastest dissolution profile |
| CC(C)OC(=O)[C@H](C)N[P@](=O)(CO[C@H](C)Cn1cnc2c(N)ncnc21)Oc1ccccc1 [TAF, Tenofovir Alafenamide Fumarate, reference compound] | – | – | – | – | – | – | – | – | – | – | – | – | – | 6% | 7% | 9% | 16% | 24% | 31% | 46% | % release of active from fumarate salt pellet ([3]; 120 min): 60% |
| CC(C)OC(=O)OCOP(=O)(CO[C@H](C)Cn1cnc2c(N)ncnc21)OCOC(=O)OC(C)C [TDF, Tenofovir Disoproxil Fumarate, reference compound] | – | – | – | – | – | – | – | – | – | – | – | – | – | 8% | 5% | 7% | 13% | 19% | 26% | 37% | % release of active from fumarate salt pellet ([3]; 120 min): 50% |
| CC(Cn1cnc2c(N)ncnc21)OCP(=O)(OCOC(=O)C(C)(C)C)Oc1ccccc1.O=C(O)C(O)C(O)C(=O)O (stereo not shown) [Tartrate, (((1-(6-amino-9H-purin-9-yl)propan-2-yloxy)methyl) (phenoxy)phosphoryloxy) methyl pivalate tartaric acid salt] | – | – | 2% | 6% | 12% | 17% | 24% | 35% | 47% | 59% | 70% | 80% | 88% | – | – | – | – | – | – | – | – |

From patent US11390637B2, “Salts of antiviral phosphonate analogues and process for preparation thereof” (CIPLA LIMITED, priority 2017, dated 2022)
